The record followed here is US4714765A, “Rhodanine derivatives and process for preparing the same” (Taiho Pharmaceutical Company, Limited, priority 1985, dated 1987).

Molecules are shown by their SMILES.

For this experiment, the target named is T1, Rat Lens Aldose Reductase (Rattus norvegicus, UniProt P07943).
T1 construct: The lenses were then homogenized in cold distilled water; from tissue; host or cells: lens of Sprague-Dawley rats, supernatant of homogenate (10,000 rpm, 10 min)
Nature of the experiment: Aldose reductase inhibitory activity (Rat Lens Aldose Reductase). Conditions: rat lens homogenate supernatant; glyceraldehyde as substrate; decrease in NADPH at 340 nm; read-out: IC50 (concentration of the test compound at which 50% inhibition of aldose reductase is achieved). The experiment is classed as biochemical, rat (Sprague-Dawley). As for the experimental part: Aldose reductase inhibitory activity
Rat Lens Aldose Reductase:
This test was conducted according to the method described in J. Biol. Chem., 240, 877 (1965).
Sprague-Dawley rats weighing 100 to 150 g were suffocated with carbon dioxide and the lenses were carefully removed. The lenses were then homogenized in cold distilled water (0.4 ml/lens) and the homogenate was centrifuged at 10,000 rpm for 10 min. The enzyme, i.e. aldose reductase was spectrophotometrically measured by following the decrease in NADPH at 340 nm with glyceraldehyde as substrate. An IC50 i.e., a concentration of the test compound at which 50% inhibition of aldose reductase is achieved was calculated from estimated dose-response curves.
For the molecule `Cc1cc(C=CC=C2SC(=S)NC2=O)on1` [Compound 1a, 5-[3-(3-methyl-5-isoxazolyl)-1,3-propanediene]rhodanine], the IC50 stood at 4000 nM. With `Cc1cc(C=CC=C2SC(=S)N(CC(=O)O)C2=O)on1` [Compound 1b], the IC50 stood at 130 nM. On to `Cc1cc(CC2SC(=S)N(CC(=O)O)C2=O)on1` (stereo not drawn) [Compound 1g, 5-(3-methyl-5-isoxazolylmethyl)rhodanine-3-acetic acid], for which the IC50 was determined as 640 nM.
